We go through 33 molecules from patent publication US20240034736A1, “HSD17B13 INHIBITORS AND USES THEREOF” (FL2022-001, Inc., priority 2020, published 2024).

Structures are written as SMILES.

The target of one assay is Recombinant human HSD17B13 enzyme (Homo sapiens (Human), UniProt Q7Z5P4). Nature of the assay: HSD17b13 NAD(P)H-Glo Biochemical Assay. To be noted: 50 uM estradiol, 1 mM NAD+; read-out: HSD17β13 IC50. In short, it runs like this: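 Luminescent NAD(P)H-Glo detection (1 h, RT) quantified cofactor reduction after a 3 h, 37° C reaction of human HSD17B13 with estradiol (50 uM final) and NAD+ (1 mM final). Compounds were first pre-incubated 20 min at RT with enzyme in Tris pH 7.4 buffer containing Tween-20 and BSA.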
Sequence of Recombinant human HSD17B13 enzyme (Q7Z5P4 20-300): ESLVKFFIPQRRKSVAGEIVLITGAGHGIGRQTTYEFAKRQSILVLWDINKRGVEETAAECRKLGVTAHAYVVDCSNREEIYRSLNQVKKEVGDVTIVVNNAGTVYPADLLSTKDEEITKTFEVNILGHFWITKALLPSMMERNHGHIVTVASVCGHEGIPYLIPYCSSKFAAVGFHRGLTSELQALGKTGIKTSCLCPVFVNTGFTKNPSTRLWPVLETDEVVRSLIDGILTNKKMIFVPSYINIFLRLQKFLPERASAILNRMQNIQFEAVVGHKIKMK
A word on the IC50: it is the concentration that inhibits the measured activity by half. As for `Cc1nn(-c2cc(C(F)(F)F)c(F)c(O)c2F)c2cnc(N3CCC(OCCN(C)C)CC3)cc12` [Compound 19.60, 3-(5-(4-(2-(Dimethylamino)ethoxy)piperidin-1-yl)-3-methyl-1H-pyrazolo[3,4-c]pyridine-1-yl)-2,6-difluoro-5-(trifluoromethyl)phenol], the IC50 lay within 100 to 1000 nM. On to `CC1CN(S(C)(=O)=O)CCN1c1ccc2c(cnn2-c2cc(O)c(F)c(C(F)(F)F)c2)c1` (stereo not drawn) [Compound 21.47, 2-Fluoro-5-(5-(2-methyl-4-(methylsulfonyl)piperazin-1-yl)-1H-indazol-1-yl)-3-(trifluoromethyl)phenol], for which the IC50 lay in the range of 100 to 1000 nM.

`Cc1nn(-c2cc(C(F)(F)F)c(Cl)c(O)c2F)c2cc(F)c(N3CCN(S(C)(=O)=O)CC34CC4)cc12` [Compound 19.110, 2-Chloro-6-fluoro-5-(6-fluoro-3-methyl-5-(7-(methylsulfonyl)-4,7-diazaspiro[2.5]octan-4-yl)-1H-indazol-1-yl)-3-(trifluoromethyl)phenol]: the IC50 is less than 100 nM.

With `COc1ccc(-c2ccc3c(cnn3-c3ccc(F)c(O)c3)c2)c(Cl)c1` [Compound 5.03, 5-(5-(2-Chloro-4-methoxyphenyl)-1H-indazol-1-yl)-2-fluorophenol], the half-inhibitory concentration (IC50) fell in the range of 100 to 1000 nM. Same read-out and setting: in the case of `CS(=O)(=O)N1CCN(c2cc3cnn(-c4cc(O)c(F)cn4)c3cn2)CC1` [Compound 19.19, 5-Fluoro-2-(5-(4-(methylsulfonyl)piperazin-1-yl)-1H-pyrazolo[3,4-c]pyridine-1-yl)pyridine-4-ol] it was 1000 to 30000 nM.

`Oc1cc(-n2cc3cc(-c4ccc(O)c(Cl)c4)ccc3n2)ccc1F` [Compound 4.06, 2-Chloro-4-(2-(4-fluoro-3-hydroxyphenyl)-2H-indazol-5-yl)phenol]: the concentration for half-maximal inhibition (IC50) fell in the range of 100 to 1000 nM. On the same count and under the same terms, the result for `CS(=O)(=O)N1CC(Oc2ccc3c(cnn3-c3cc(O)c(F)c(F)c3)c2)C1` [Compound 25, 2,3-Difluoro-5-(5-((1-(methylsulfonyl)azetidin-3-yl)oxy)-1H-indazol-1-yl)phenol] reads 100 to 1000 nM; that for `Oc1cc(-n2ncc3cc(-c4cncc(Cl)c4)ccc32)cc(F)c1F` [Compound 7, 5-(5-(5-Chloropyridin-3-yl)-1H-indazol-1-yl)-2,3-difluorophenol], 100 to 1000 nM; that for `CS(=O)(=O)N1CCN(c2ncc3c(cnn3-c3cc(O)c(F)c(C(F)(F)F)c3)n2)CC1` [Compound 21.52, 2-Fluoro-5-(5-(4-(methyl-sulfonyl)piperazin-1-yl)-1H-pyrazolo[4,3-d]pyrimidin-1-yl)-3-(trifluoromethyl)phenol], 100 to 1000 nM. With `COC1CCN(c2cc3c(C)nn(-c4cc(C(F)(F)F)c(F)c(O)c4F)c3cn2)C2(CC2)C1` (stereo not drawn) [Compound 19.52, 2,6-Difluoro-3-(5-(7-methoxy-4-azaspiro[2.5]octan-4-yl)-3-methyl-1H-pyrazolo[3,4-c]pyridine-1-yl)-5-(trifluoromethyl)phenol], the IC50 is less than 100 nM. On to `CC1CN(S(C)(=O)=O)CCN1c1cc2cnn(-c3cc(O)c(F)c(C(F)(F)F)c3)c2cn1` (stereo not drawn) [Compound 19.33, 2-Fluoro-5-(5-(2-methyl-4-(methylsulfonyl)piperazin-1-yl)-1H-pyrazolo[3,4-c]pyridine-1-yl)-3-(trifluoromethyl)phenol], for which the IC50 lay within 100 to 1000 nM. Same read-out and setting: in the case of `CC(C)c1nn(-c2cc(O)c(F)c(F)c2)c2ccc(N3CCN(S(C)(=O)=O)CC3)cc12` [Compound 21.03, 2,3-Difluoro-5-(3-isopropyl-5-(4-(methylsulfonyl)piperazin-1-yl)-1H-indazol-1-yl)phenol] it was 1000 to 30000 nM.

With `O=S(=O)(c1ccccc1)N1CCN(c2ccc3c(cnn3-c3cc(O)c(F)c(F)c3)c2)CC1` [Compound 21.09, 2,3-Difluoro-5-(5-(4-(phenyl-sulfonyl)piperazin-1-yl)-1H-indazol-1-yl)phenol], the IC50 fell in the range of 100 to 1000 nM. With `Cc1nn(-c2cc(C(F)(F)F)c(F)c(O)c2F)c2cnc(N3CCN(S(=O)(=O)c4ccccc4)CC3)cc12` [Compound 19.56, 2,6-Difluoro-3-(3-methyl-5-(4-(phenylsulfonyl)piperazin-1-yl)-1H-pyrazolo[3,4-c]pyridine-1-yl)-5-(trifluoromethyl)phenol], the IC50 was less than 100 nM.

`CC1(C)CCN(c2cc3cnn(-c4cc(O)c(F)c(C(F)(F)F)c4)c3cn2)CC1` [Compound 21.43, 5-(5-(4,4-Dimethylpiperidin-1-yl)-1H-pyrazolo[3,4-c]-pyridine-1-yl)-2-fluoro-3-(trifluoromethyl)phenol]: the 50% inhibitory concentration (IC50) lay within 100 to 1000 nM. Regarding `CNS(=O)(=O)c1ccc(-c2ccc3c(cnn3-c3ccc(F)c(O)c3)c2)cc1` [Compound 5.13, 4-(1-(4-Fluoro-3-hydroxyphenyl)-1H-indazol-5-yl)-N-methylbenzenesulfonamide], the IC50 is 100 to 1000 nM.

As to `Cc1ccc(-n2ncc3cc(N4CCN(S(C)(=O)=O)CC4)ncc32)c(F)c1O` [Compound 19.42, 2-Fluoro-6-methyl-3-(5-(4-(methylsulfonyl)piperazin-1-yl)-1H-pyrazolo[3,4-c]pyridine-1-yl)phenol], the 50% inhibitory concentration (IC50) lay within 1000 to 30000 nM.

Take `CC1(c2ccc3c(cnn3-c3cc(O)c(F)c(F)c3)c2)CCN(S(C)(=O)=O)CC1` [Compound 28.03, 2,3-Difluoro-5-(5-(4-methyl-1-(methylsulfonyl)piperidin-4-yl)-1H-indazol-1-yl)phenol]: the concentration for half-maximal inhibition (IC50) lay in the range of 1000 to 30000 nM. As for `Oc1cc(-n2ncc3nc(-c4ccc(O)c(Cl)c4)ncc32)ccc1F` [Compound 5.28, 2-Chloro-4-(1-(4-fluoro-3-hydroxyphenyl)-1H-pyrazolo[4,3-d]pyrimidin-5-yl)phenol], the IC50 was in the range of 1000 to 30000 nM. On to `Oc1cc(-n2ncc3cc(-c4ccc(Cl)cc4)ccc32)ccc1F` [Compound 4.09, 5-(5-(4-Chlorophenyl)-1H-indazol-1-yl)-2-fluorophenol], for which the IC50 was in the range of 100 to 1000 nM. For the molecule `CS(=O)(=O)N1CCN(c2cc3cnn(-c4cc(O)c(F)c(C(F)(F)F)c4)c3cc2F)CC1` [Compound 19.01, 2-Fluoro-5-(6-fluoro-5-(4-(methylsulfonyl)piperazin-1-yl)-1H-indazol-1-yl)-3-(trifluoromethyl)phenol], the IC50 lay in the range of 100 to 1000 nM. Take `CS(=O)(=O)N1CCN(c2ccc3c(cnn3-c3cc(O)cc(C(F)(F)F)n3)c2)CC1` [Compound 31.02, 2-(5-(4-(Methylsulfonyl)-piperazin-1-yl)-1H-indazol-1-yl)-6-(trifluoromethyl)-pyridin-4-ol]: the IC50 is 1000 to 30000 nM. For `CS(=O)(=O)N1CCN(c2cc3cn(-c4cc(O)c(F)c(Cl)c4)nc3cn2)CC1` [Compound 19.22, 3-Chloro-2-fluoro-5-(5-(4-(methylsulfonyl)piperazin-1-yl)-2H-pyrazolo[3,4-c]pyridine-2-yl)phenol], the concentration for half-maximal inhibition (IC50) fell in the range of 100 to 1000 nM.

Take `Cc1nn(-c2cc(C(F)(F)F)c(F)c(O)c2F)c2ccc(N(C)C3CCOCC3)cc12` [Compound 19.69, 2,6-Difluoro-3-(3-methyl-5-(methyl(tetrahydro-2H-pyran-4-yl)amino)-1H-indazol-1-yl)-5-(trifluoromethyl)phenol]: the IC50 was less than 100 nM.

As to `Cc1nn(-c2cc(C(F)(F)F)c(F)c(O)c2F)c2cnc(N3CCOCC34CC4)nc12` [Compound 19.95, 2,6-Difluoro-3-(3-methyl-5-(7-oxa-4-azaspiro[2.5]octan-4-yl)-1H-pyrazolo[4,3-d]pyrimidin-1-yl)-5-(trifluoromethyl)phenol], the IC50 was 100 to 1000 nM. Take `CCN(c1cc2c(C)nn(-c3cc(C(F)(F)F)c(F)c(O)c3F)c2cn1)C1CCOCC1` [Compound 19.54, 3-(5-(Ethyl(tetrahydro-2H-pyran-4-yl)amino)-3-methyl-1H-pyrazolo[3,4-c]pyridine-1-yl)-2,6-difluoro-5-(trifluoromethyl)phenol]: the IC50 was less than 100 nM.

For the molecule `CS(=O)(=O)N1CCN(c2cc3cnn(-c4ncc(Cl)c(O)c4F)c3cn2)CC1` [Compound 19.31, 5-Chloro-3-fluoro-2-(5-(4-(methylsulfonyl)piperazin-1-yl)-1H-pyrazolo[3,4-c]pyridine-1-yl)pyridine-4-ol], the IC50 lay within 1000 to 30000 nM. As to `Cc1nn(-c2cc(O)c(F)c(NC(=O)C(F)(F)F)c2)c2cnc(N3CCOCC34CC4)cc12` [Compound 19.92, 2,2,2-Trifluoro-N-(2-fluoro-3-hydroxy-5-(3-methyl-5-(7-oxa-4-azaspiro[2.5]octan-4-yl)-1H-pyrazolo[3,4-c]pyridin-1-yl)phenyl)acetamide], the 50% inhibitory concentration (IC50) fell in the range of 1000 to 30000 nM.

Staying with this assay, now noted: read-out: HSD17β13 inhibition at 10 uM.
What is called inhibition is the percentage by which the read-out fell short of the control. For `CN(C)C(=O)C1CCN(c2ccc3c(cnn3-c3ccc(F)c(O)c3)c2)CC1` [Compound 20.04, 1-(1-(4-Fluoro-3-hydroxy-phenyl)-1H-indazol-5-yl)-N,N-dimethylpiperidine-4-carboxamide], the inhibition at 10 µM was less than 20%.

For `CN(C)C(=O)C1(c2ccc3c(cnn3-c3cc(O)c(F)c(F)c3)c2)CCN(S(C)(=O)=O)CC1` [Compound 29.01, 4-(1-(3,4-Difluoro-5-hydroxy-phenyl)-1H-indazol-5-yl)-N,N-dimethyl-1-(methyl-sulfonyl)piperidine-4-carbox-amide], the inhibition at 10 µM was less than 20%.

The assay is the same for the next values; noted with them: read-out: HSD17β13 inhibition at 30 uM.
Turning to `Cc1cc(N2CCN(S(C)(=O)=O)CC2)cc2cnn(-c3cc(O)c(F)c(F)c3)c12` [Compound 21.17, 2,3-Difluoro-5-(7-methyl-5-(4-(methylsulfonyl)piperazin-1-yl)-1H-indazol-1-yl)phenol], the inhibition at 30 µM was 47%. As to `CS(=O)(=O)N1CCN(c2cc3cn(-c4cccc(O)c4C#N)nc3cn2)CC1` [Compound 19.40, 2-Hydroxy-6-(5-(4-(methylsulfonyl)piperazin-1-yl)-2H-pyrazolo[3,4-c]pyridine-2-yl)benzonitrile], the inhibition at 30 µM was found to be 39%.

The same assay, now with this note: read-out: HSD17β13 inhibition at 100 uM.
On to `CNC(=O)C1CCN(c2ccc3c(cnn3-c3ccc(F)c(O)c3)c2)CC1` [Compound 20.03, 1-(1-(4-Fluoro-3-hydroxy-phenyl)-1H-indazol-5-yl)-N-methylpiperidine-4-carboxamide], for which the inhibition at 100 µM was 40%.
